In experiment [1] the test system is Staphylococcus aureus. Description: Antimicrobial activity against Staphylococcus aureus RN4220 by broth microdilution method. The class given is functional. (In general: In broth dilution the organism is exposed to a series of concentrations in liquid medium.)
Experiment [2] deals with Staphylococcus aureus. Kind of experiment: Antimicrobial activity against Staphylococcus aureus RN4220 transformant carrying plasmid pKKS25 and expressing erm(T), dfrK and tet(L) genes by broth microdilution method. The class given is functional.
The subject of experiment [3] is Staphylococcus aureus. Description: Antimicrobial activity against Staphylococcus aureus 25 transformant carrying plasmid pKKS25 and expressing erm(T), dfrKtet(L), tet(K), tet(M), mecA and blaZ genes by broth microdilution method.

In brackets after ≈: the same amount, converted by molar mass. Where only a bound is given, the exact number is not on record here.

As to `CC1(C)S[C@@H]2[C@H](NC(=O)[C@H](N)c3ccccc3)C(=O)N2[C@H]1C(=O)O` [AMPICILLIN], the MIC with Staphylococcus aureus [1] and with Staphylococcus aureus [2] was 0.06 µg/mL (≈ 0.172 µM) throughout.
As to `CN[C@@H]1[C@@H](O[C@H]2O[C@H](CO)[C@@H](N)[C@H](O)[C@H]2O)OC2C[C@@H](N)[C@@H](O[C@H]3[C@H](O)[C@@H](O)[C@H](N)C[C@@H]3N)OC2[C@@H]1O` (stereo not given in full) [APRAMYCIN], the MIC (as a rule, the lowest concentration found to suppress growth) with Staphylococcus aureus [3] turned out to be 4 µg/mL (≈ 7.41 µM); in the experiment with Staphylococcus aureus [1], 1 µg/mL (≈ 1.85 µM); against Staphylococcus aureus [2], 1 µg/mL (≈ 1.85 µM).
`O=C(N[C@H](CO)[C@H](O)c1ccc([N+](=O)[O-])cc1)C(Cl)Cl` [CHLORAMPHENICOL]: the MIC was 8 µg/mL (≈ 24.8 µM) in the experiment with Staphylococcus aureus [3], 4 µg/mL (≈ 12.4 µM) with Staphylococcus aureus [1] and 4 µg/mL (≈ 12.4 µM) with Staphylococcus aureus [2].
Consider `CCC[C@@H]1C[C@@H](C(=O)N[C@@H]([C@H]2O[C@H](SC)[C@H](O)[C@@H](O)[C@H]2O)[C@H](C)Cl)N(C)C1` [CLINDAMYCIN], for which the MIC in the experiment with Staphylococcus aureus [3] is at least 64 µg/mL; against Staphylococcus aureus [1], at most 0.12 µg/mL; in the experiment with Staphylococcus aureus [2], at least 64 µg/mL.
As to `CCN1CCN(c2cc3c(cc2F)c(=O)c(C(=O)O)cn3C2CC2)CC1` [ENROFLOXACIN], the MIC in the experiment with Staphylococcus aureus [3], against Staphylococcus aureus [1] and in the experiment on Staphylococcus aureus [2] was 0.25 µg/mL (≈ 0.696 µM) each time.
As to `CC[C@H]1OC(=O)[C@H](C)[C@@H](O[C@H]2C[C@@](C)(OC)[C@@H](O)[C@H](C)O2)[C@H](C)[C@@H](O[C@@H]2O[C@H](C)C[C@H](N(C)C)[C@H]2O)[C@](C)(O)C[C@@H](C)C(=O)[C@H](C)[C@@H](O)[C@]1(C)O` [ERYTHROMYCIN], the MIC against Staphylococcus aureus [3] is at least 128 µg/mL; against Staphylococcus aureus [1], 0.25 µg/mL (≈ 0.341 µM); with Staphylococcus aureus [2], at least 128 µg/mL.
As to `CC(=O)NC[C@H]1CN(c2ccc(N3CCOCC3)c(F)c2)C(=O)O1` [LINEZOLID], the MIC against Staphylococcus aureus [3], in the experiment on Staphylococcus aureus [1] and against Staphylococcus aureus [2] was 0.5 µg/mL (≈ 1.48 µM) each time.
Turning to `Cc1onc(-c2ccccc2)c1C(=O)N[C@@H]1C(=O)N2[C@@H]1SC(C)(C)[C@@H]2C(=O)O` [OXACILLIN], the values for the MIC against Staphylococcus aureus [3], against Staphylococcus aureus [1] and in the experiment with Staphylococcus aureus [2] were 8 µg/mL (≈ 19.9 µM), 0.06 µg/mL (≈ 0.149 µM) and 0.06 µg/mL (≈ 0.149 µM), respectively.
With `CC1(C)S[C@@H]2[C@H](NC(=O)Cc3ccccc3)C(=O)N2[C@H]1C(=O)O` [PENICILLIN G], the figures for the MIC in the experiment with Staphylococcus aureus [3] and against Staphylococcus aureus [1] were 16 µg/mL (≈ 47.8 µM) and at most 0.03 µg/mL, respectively.
With `CN[C@@H]1[C@H](O)[C@H](NC)[C@H]2O[C@@]3(O)C(=O)C[C@@H](C)O[C@H]3O[C@@H]2[C@H]1O` [SPECTINOMYCIN], the MIC against Staphylococcus aureus [3], against Staphylococcus aureus [1] and against Staphylococcus aureus [2] was 64 µg/mL (≈ 193 µM) throughout.
In the case of `CN(C)[C@@H]1C(O)=C(C(N)=O)C(=O)[C@@]2(O)C(O)=C3C(=O)c4c(O)cccc4[C@@](C)(O)[C@H]3C[C@@H]12` [TETRACYCLINE], the MIC stood at 128 µg/mL (≈ 288 µM) in the experiment on Staphylococcus aureus [3], 0.06 µg/mL (≈ 0.135 µM) in the experiment on Staphylococcus aureus [1] and 32 µg/mL (≈ 72 µM) in the experiment with Staphylococcus aureus [2].
In the same order, the values of `C=C[C@]1(C)C[C@@H](OC(=O)CSCCN(CC)CC)[C@]2(C)[C@H](C)CC[C@]3(CCC(=O)[C@H]32)[C@@H](C)[C@@H]1O` [TIAMULIN] are 0.5 µg/mL (≈ 1.01 µM), 0.12 µg/mL (≈ 0.243 µM) and 0.12 µg/mL (≈ 0.243 µM).
In the same order, the values of `COc1cc(Cc2cnc(N)nc2N)cc(OC)c1OC` [TRIMETHOPRIM] are at least 128 µg/mL, 0.5 µg/mL (≈ 1.72 µM) and at least 128 µg/mL.
In the case of `CC[C@H]1OC(=O)C[C@@H](O)[C@H](C)[C@@H](O[C@@H]2O[C@H](C)[C@@H](O[C@H]3C[C@@](C)(O)[C@@H](O)[C@H](C)O3)[C@H](N(C)C)[C@H]2O)[C@@H](CC=O)C[C@@H](C)C(=O)/C=C/C(C)=C/[C@@H]1CO[C@@H]1O[C@H](C)[C@@H](O)[C@@H](OC)[C@H]1OC.O=C(O)C(O)C(O)C(=O)O` [TYLOCIN TARTARATE], the results for the MIC in the experiment on Staphylococcus aureus [3], in the experiment with Staphylococcus aureus [1] and in the experiment with Staphylococcus aureus [2] were at least 64 µg/mL, 1 µg/mL and at least 64 µg/mL, respectively.
Turning to `C=C[C@]1(C)C[C@@H](OC(=O)CSC(C)(C)CNC(=O)[C@H](N)C(C)C)[C@]2(C)[C@H](C)CC[C@]3(CCC(=O)[C@H]32)[C@@H](C)[C@@H]1O` [VALNEMULIN], the MIC in the experiment on Staphylococcus aureus [3], against Staphylococcus aureus [1] and with Staphylococcus aureus [2] was 0.03 µg/mL (≈ 0.0531 µM) throughout.
Turning to GENTAMICIN, the MIC against Staphylococcus aureus [1] and in the experiment with Staphylococcus aureus [2] was 0.25 µg/mL in each case.
